Patent US7943608B2, “Diazepinoes” (Merck Patent GmbH, priority 2005, dated 2011)
pIC50: −log10 of the molar value.

Target: T1, His6-PDK1(Δ1-50) (Homo sapiens, UniProt O15530)
T1 construct: His6 (N)
T1 sequence (O15530 51-556): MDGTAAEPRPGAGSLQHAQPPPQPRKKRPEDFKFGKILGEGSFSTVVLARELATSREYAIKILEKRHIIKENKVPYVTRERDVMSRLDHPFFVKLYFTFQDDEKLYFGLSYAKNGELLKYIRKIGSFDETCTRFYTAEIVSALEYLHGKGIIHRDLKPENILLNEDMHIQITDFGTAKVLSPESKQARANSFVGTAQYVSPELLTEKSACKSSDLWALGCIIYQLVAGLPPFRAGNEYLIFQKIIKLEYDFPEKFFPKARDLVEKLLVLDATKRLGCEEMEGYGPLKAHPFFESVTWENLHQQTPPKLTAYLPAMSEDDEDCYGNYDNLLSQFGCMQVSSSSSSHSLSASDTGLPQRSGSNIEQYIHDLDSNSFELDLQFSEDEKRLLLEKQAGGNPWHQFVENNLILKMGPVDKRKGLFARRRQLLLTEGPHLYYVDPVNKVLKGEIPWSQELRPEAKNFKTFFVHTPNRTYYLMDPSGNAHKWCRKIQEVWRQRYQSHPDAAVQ
Assay: Inhibition of PDK1 (IC50), 384-well flashplate kinase assay
Format: biochemical
Conditions: 4 μM ATP, 400 nM PDKtide
Description: Inhibition of PDK1 (IC50)
The kinase assay can be carried out as a 384-well flashplate assay. 3.4 nM His6-PDK1(Δ1-50), 400 nM PDKtide (biotin-bA-bA-[…]) and 4 μM ATP (with 0.2 μCi of 33P-ATP/well) are incubated at […] for 60 min in a total volume of 50 μl (50 mM TRIS, 10 mM Mg acetate, 0.1% of mercaptoethanol, 0.02% of Brij35, 0.1% of BSA, pH 7.5) with or without test substance (5-10 concentrations). The reaction is stopped using 25 μl of 200 mM EDTA solution, filtered with suction after 30 min at room temperature, and the wells are washed with 3 times 100 μl of 0.9% NaCl solution. The nonspecific content of the kinase reaction (blank) is determined using 100 nM staurosporine. Radioactivity is measured using a Topcount scintillation counter (PerkinElmer, USA). IC50 values are calculated using the RS1 computer program.

[1] = first part of Table 1 (compounds 1-31)
[2] = second part of Table 1 (compounds 32-124)

Question: How did the pIC50 [1] turn out when `Cc1ccc2c(c1)NC(=O)c1cnc(N(C)C3CCN(C)CC3)nc1N2` [Compound 14] was run?
Answer: Its pIC50 is 6.40.

Question: `CCOc1ccc2c(c1)NC(=O)c1cnc(NC3CCN(CC)CC3)nc1N2` [Compound 43] was tested. Which pIC50 [2] did it give?
Answer: The pIC50 was 5.70.

Question: How did the pIC50 [1] turn out when `Cc1ccc2c(c1)NC(=O)c1cnc(NC3CCN(C)CC3)nc1N2` [Compound 19] was run?
Answer: Its pIC50 is 6.22.

Question: `CCN1CCC(Nc2ncc3c(n2)Nc2ccc(C#N)cc2NC3=O)CC1` [Compound 55] was tested. Which pIC50 [2] did it give?
Answer: Its pIC50 is 5.64.

Question: `CCN1CCC(Nc2ncc3c(n2)Nc2cc(C)c(C)cc2NC3=O)CC1` [Compound 47] was tested. Which pIC50 [2] did it give?
Answer: Its pIC50 is 5.82.

Question: How did the pIC50 [2] turn out when `Cc1cc2c(cc1C)Nc1nc(N(C)C3CCNCC3)ncc1C(=O)N2` [Compound 74] was run?
Answer: The pIC50 was 6.49.

Question: `CN1CCC(Nc2ncc3c(n2)Nc2ccc(C(C)(C)C)cc2NC3=O)CC1` [Compound 18] was tested. Which pIC50 [1] did it give?
Answer: The pIC50 was 6.15.

Question: `CC(C)N1CCC(Nc2ncc3c(n2)Nc2ccc(C(C)(C)C)cc2NC3=O)CC1` [Compound 51] was tested. Which pIC50 [2] did it give?
Answer: Its pIC50 is 5.57.

Question: `CN1CCC(N(C)c2ncc3c(n2)Nc2ccc(Br)cc2NC3=O)CC1` [Compound 13] was tested. Which pIC50 [1] did it give?
Answer: Its pIC50 is 5.77.

Question: With `CN1CCC(N(C)c2ncc3c(n2)Nc2cc(NC(=O)Nc4ccsc4)ccc2NC3=O)CC1` [Compound 94] as the compound, how does the pIC50 [2] read?
Answer: The pIC50 was 6.80.

Question: `CCCNC(=O)Nc1ccc2c(c1)NC(=O)c1cnc(N(C)C3CCN(C)CC3)nc1N2` [Compound 86] was tested. Which pIC50 [2] did it give?
Answer: Its pIC50 is 6.55.

Question: `CCOc1ccc2c(c1)NC(=O)c1cnc(NC3CCN(C)CC3)nc1N2` [Compound 21] was tested. Which pIC50 [1] did it give?
Answer: Its pIC50 is 6.00.

Question: How did the pIC50 [2] turn out when `CCN1CCC(Nc2ncc3c(n2)Nc2ccc(C)cc2NC3=O)CC1` [Compound 45] was run?
Answer: Its pIC50 is 5.82.

Question: `Cc1ccc2c(c1)NC(=O)c1cnc(NC3CCN(C(C)C)CC3)nc1N2` [Compound 53] was tested. Which pIC50 [2] did it give?
Answer: Its pIC50 is 5.62.

Question: How did the pIC50 [2] turn out when `Cc1cccc2c1Nc1nc(NC3CCN(C)CC3)ncc1C(=O)N2` [Compound 46] was run?
Answer: Its pIC50 is 5.62.

Question: How did the pIC50 [2] turn out when `CN1CCC(N(C)c2ncc3c(n2)Nc2c(NC(=O)NC(C)(C)C)cccc2NC3=O)CC1` [Compound 84] was run?
Answer: Its pIC50 is 5.26.

Question: How did the pIC50 [1] turn out when `Cc1ccc2c(c1)Nc1nc(N(C)C3CCN(C)CC3)ncc1C(=O)N2` [Compound 2, 7-Methyl-3-[methyl(1-methylpiperidin-4-yl)amino]-5,10-dihydro-2,4,5,10-tetraazadibenzo[a,d]cyclohepten-11-one] was run?
Answer: Its pIC50 is 5.62.

Question: How did the pIC50 [2] turn out when `Cc1cc(C)c2c(c1)NC(=O)c1cnc(NC3CCN(C)CC3)nc1N2` [Compound 34] was run?
Answer: The pIC50 was 5.43.

Question: With `Cc1cc2c(cc1C)Nc1nc(NC3CCN(C)CC3)ncc1C(=O)N2` [Compound 8, 7,8-Dimethyl-3-(1-methylpiperidin-4-ylamino)-5,10-dihydro-2,4,5,10-tetraazadibenzo[a,d]cyclohepten-11-one] as the compound, how does the pIC50 [1] read?
Answer: Its pIC50 is 5.60.

Question: `CN1CCC(N(C)c2ncc3c(n2)Nc2ccc(C(C)(C)C)cc2NC3=O)CC1` [Compound 16] was tested. Which pIC50 [1] did it give?
Answer: Its pIC50 is 6.40.

Question: With `CC(C)NC(=O)Nc1cccc2c1Nc1nc(N(C)C3CCN(C)CC3)ncc1C(=O)N2` [Compound 79] as the compound, how does the pIC50 [2] read?
Answer: Its pIC50 is 5.22.

Question: How did the pIC50 [2] turn out when `CC(C)N1CCC(Nc2ncc3c(n2)Nc2ccc(C(F)(F)F)cc2NC3=O)CC1` [Compound 61] was run?
Answer: Its pIC50 is 5.19.

Question: How did the pIC50 [2] turn out when `CN1CCC(N(C)c2ncc3c(n2)Nc2cc(NC(=O)Nc4cccs4)ccc2NC3=O)CC1` [Compound 90] was run?
Answer: Its pIC50 is 6.54.

Question: `CN1CCC(N(C)c2ncc3c(n2)Nc2ccc(NC(=O)NC(C)(C)C)cc2NC3=O)CC1` [Compound 83] was tested. Which pIC50 [2] did it give?
Answer: The pIC50 was 6.70.

Question: With `Cc1ccc2c(c1)NC(=O)c1cnc(NC3CCN(C)CC3)nc1N2` [Compound 12] as the compound, how does the pIC50 [1] read?
Answer: The pIC50 was 6.05.

Question: `Cc1ccc2c(c1C)Nc1nc(N(C)C3CCN(C)CC3)ncc1C(=O)N2` [Compound 22] was tested. Which pIC50 [1] did it give?
Answer: The pIC50 was 5.59.

Question: `Cc1cc2c(cc1C)Nc1nc(NC3CCN(C(C)C)CC3)ncc1C(=O)N2` [Compound 57] was tested. Which pIC50 [2] did it give?
Answer: The pIC50 was 5.70.

Question: With `CN1CCC(N(C)c2ncc3c(n2)Nc2ccc(NC(=O)NC4CCCC4)cc2NC3=O)CC1` [Compound 78] as the compound, how does the pIC50 [2] read?
Answer: Its pIC50 is 6.82.

Question: `CCN1CCC(Nc2ncc3c(n2)Nc2c(ccc(C)c2C)NC3=O)CC1` [Compound 41] was tested. Which pIC50 [2] did it give?
Answer: The pIC50 was 5.20.
